Data reported in US11766060B2, “Compositions comprising mogrosides, steviol glycosides and glycosylated derivatives thereof and methods of enhancing the mouthfeel or sweetness of consumables” (Sweet Green Fields, LLC, priority 2016, dated 2023).

Assays:
[1] = Evaluation of the sweetness detection threshold (8 panelists rate sweet / not sweet); format: in vivo, human; conditions: at a 1 ppm level
Text: The phrase “sweetness detection threshold” refers to the minimum concentration at which panelists consisting of 8 persons are able to detect sweetness in a composition, liquid or solid. This is further defined as provided in the Examples herein.
Threshold of sweetness refers to a concentration of a material that below a concentration where sweetness can be detected may still impart a flavor to the consumable (including water). When half of a trained panel of testers determines something is “sweet” at a given concentration, then the sample meets the threshold. When less than half of a panel of testers cannot discern sweetness at a given concentration, then concentrations of the substance below the sweetness level are considered a flavoring.
To evaluate the sweetness potency of various concentrations of GMG or MGV in aqueous solutions, aqueous solutions of GMG and MGV at various concentrations were prepared and were evaluated at room temperature. The sample solutions were evaluated by 8 panelists that were previously qualified for their taste acuity. Samples coded with triple digit numbers were given to a panelist randomly. Panelists tasted the samples randomly. After tasting a sample, every panelist was required to wash their mouth with water and rest for 60 seconds. Panelists gave ratings of “sweet” or “not sweet” to each sample.

[2] = Evaluation of taste profile compared to reference sugar solutions by panel (Example 3 method); format: in vivo, human; conditions: inclusion of thaumatin
Description: I. The components where mixed and then dissolved in aqueous citric acid (pH 3.8) with ultrasound at room temperature and left to equilibrate for 30 minutes.
The sample solutions were evaluated by 8 panelists that have been previously qualified for their taste acuity. Samples coded with triple digit numbers were given to the panelist randomly. Panelists tasted the samples randomly. After tasting a sample, every panelist was required to rinse their mouth with water and rest for 60 seconds. For the sweetness evaluation of each sample, the sample was tested in pairs with several sugar solutions of given sweetness, such as 5%, 6%, 7%, 8%, 9%, or 10% as standard reference samples. The sweetness of each sample was compared with those of the reference sugar solutions, and the sweetness was evaluated and recorded according to the judgment that the sweetness of the sample was similar to a specific sugar solution or between specific sugar solutions. The results were recorded as the mean value of the results provided by the panels.
For evaluation of taste profile, the samples were tested and were compared to reference sugar solutions. Panelists judged if the taste profile of sample solutions were similar to that of sugar.

[3] = pure thaumatin; cited from earlier work

thaumatin
sweetness imparted to a composition [1]: no sweetness | taste profile of MGV [2]: improved | sweetness threshold [3]: 7 ppm
